Reference: US4897503A, “1,1,2-triaryl-1-alkene derivatives” (Taiho Pharmaceutical, priority 1986, dated 1990)
Where two headings read alike, the source gives them in different places.

Experiments:
[1] = tested on: experimental hormone-dependent tumor cells; details: vs tamoxifen; cited from earlier work
[2] = vs tamoxifen; cited from earlier work
[3] = Acute toxicity test (oral and intraperitoneal, Up-and-Down method); parameters: species or system mouse (ddY strain); details: mouse, in vivo, 6-week old male ddY mice, 3 weeks observation
Experimental: The acute oral and intraperitoneal toxicity of these compounds were investigated in 6-week old male ddY strain mice. In the oral toxicity study, each test compound was suspended or dissolved in an aqueous solution containing 0.5% of carboxymethylcellulose and 0.5% of Tween 80 and was administered at a dose of 4 ml/100 g. In the intraperitoneal toxicity study, each test compound was suspended or dissolved in physiological saline containing 0.5% of Tween 80 and was administered at a dose of 2 ml/100 g.

[4] = tested on: mammary cancer induced by 7,12-dimethylbenzanthracene (DMBA); assay: Effect on DMBA-induced mammary cancer: inhibition of appearance of new tumor; assay type: in vivo, rat (Sprague-Dawley, female); details: for Inhibition of appearance of new tumor: 6 times a week for 3 weeks, 15 animals
Experimental: (§1) The experiments were performed in 7-week-old female Sprague-Dawley rats bearing mammary cancer which had been induced by oral administration of 7,12-dimethylbenzanthracene (DMBA) according to the method described in European Journal of Cancer and Clinical Oncology 11, 571 (1975) and Cancer Research 26, 2169 (1966). The inhibitory effect of each test compound on this cancer was investigated.
(§2) Each test compound was suspended in an aqueous solution containing 0.5% of carboxymethylcellulose and 0.5% of Tween 80 and the suspension was orally administered by gastric gavage 6 times a week for 3 consecutive weeks. Once a week and on the 21st day, the number of induced tumors was counted and the surface area of tumors was measured. The percent increase in surface area relative to the surface area on the first day of administration was calculated and the result was compared with the result in the control group. The inhibitory effects on the appearance of new tumor are shown in Table 7 and the inhibitory effects on the enlargement of the tumor are shown in Table 8. The inhibition of appearance of new tumor (%) was calculated according to the formula: 100-(N/M)×100 where N is the number of newly appeared tumors in test group and M is the number of newly appeared tumors in control group.

[5] = tested on: mammary cancer induced by 7,12-dimethylbenzanthracene (DMBA); assay: Effect on DMBA-induced mammary cancer: inhibition of tumor growth; assay type: in vivo, rat (Sprague-Dawley, female); details: 6 times a week for 3 weeks, 15 animals
Experimental: as §1, §2

[6] = tested on: uterus; assay: Anti-uterotrophic effect (inhibition of uterine weight gain in immature rats); assay type: in vivo, rat (Sprague-Dawley, female; details: Rattus norvegicus, 504 h, read-out: ED50 (50% inhibition of uterine weight gain)
Text: The antiuterotophic activity of each test compound was studied using immature 4-week-old female Sprague-Dawley rats, according to the method described in Methods in Hormone Research, vol. 2, Academic Press p. 707 (1962).
Each test compound was suspended in a vehicle solution (i.e., an aqueous solution containing 0.5% of carboxymethylcellulose and 0.5% of Tween 80) and the suspension was orally administered using a stomach tube 6 times a week for 3 consecutive weeks at various doses. The animals were autopsied one day after the final administration and the uterus was weighed.
The percent inhibition of uterine weight gain was calculated by the formula
Percent inhibition=(A-C)×100/(A-B)
where A is the mean value of the uterine weight of the control which received the vehicle solution, B is that of the ovariectomized control (i.e., animals ovariectomized at the age of four weeks and thereafter treated with the vehicle solution for 3 weeks) and C is that of the animals which received each dose of each test compound. Then, the dose of each test compound causing a 50% inhibition (ED50) was calculated from the dose-response curve.

[7] = ip, intraperitoneal, read-out: LD50 intraperitoneal

| Compound | antitumor activity in vitro, in words [1] | effectiveness in vivo, in words [2] | LD50 at 504 h [3, 7] [mg/kg] | LD50 at 504 h ([3]; oral, read-out: LD50 oral) [mg/kg] | Inhibition of appearance of new tumor ([4]; 0.1 mg/kg/day p.o.) [%] | Inhibition of appearance of new tumor ([4]; 0.3 mg/kg/day p.o.) [%] | Inhibition of tumor growth (on day 21) ([5]; 0.1 mg/kg/day p.o.) [%] | Inhibition of tumor growth (on day 21) ([5]; 0.3 mg/kg/day p.o.) [%] | ED50 ([6]; po) [mg/kg] | inhibition of appearance of new mammary cancer, in words ([4]; 0.1 mg/kg/day) | ED50 ([6]; oral, 6 times a week for 3 weeks, immature female SD rats, 7 animals) [mg/kg] |
| --- | --- | --- | --- | --- | --- | --- | --- | --- | --- | --- | --- |
| CC/C(=C(\c1ccc(O)cc1)c1ccc(OCCN(C)C)cc1)c1ccccc1 [4-hydroxytamoxifen] | more potent antitumor activity than tamoxifen | inferior in effectiveness to tamoxifen | – | – | – | – | – | – | – | – | – |
| CC/C(=C(/c1ccc(OCCN(C)C)cc1)c1ccc(OP(=O)(O)O)cc1)c1ccccc1 [Compound 1, (E)-4-[1-[4-[2-(Dimethylamino)ethoxy]phenyl]-2-phenyl-1-butenyl]-phenyl phosphate] | – | – | 223 | > 2000 | 56.7 | 54.7 | 26.5 | 42.3 | 0.076 | – | – |
| CCC(=C(c1ccc(OCCN(C)C)cc1)c1ccc(OP(=O)(O)O)cc1)c1ccc(C(C)C)cc1 [Compound 5] | – | – | 354 | > 2000 | 46.7 | 48.5 | 26.5 | 50.2 | 0.097 | – | – |
| CCOc1ccc(/C(CC)=C(/c2ccc(OCCN(C)C)cc2)c2ccc(OP(=O)(O)O)cc2)cc1 [Compound 7] | – | – | 223 | > 2000 | – | – | – | – | 0.026 | – | – |
| CC/C(=C(\c1ccccc1)c1ccc(OCCN(C)C)cc1)c1ccccc1 [Tamoxifen, reference compound] | – | – | 177 | > 2000 | -7.7 | 21.0 | 4.7 | 39.0 | – | ineffective | 0.203 |
